Laboratory results published in article PMC9012943, “Oral remdesivir derivative VV116 is a potent inhibitor of respiratory syncytial virus with efficacy in mouse model” (Signal Transduction and Targeted Therapy, 2022).
“And” between values parts separate entries of the source, which are not always exact repeats. Equal values may be shown once. Read-outs that look alike come from different tables or passages of the source.

Legend:
RSV A2 [1] = experiment: Inhibition of RSV A2 replication in A549 cells (qRT-PCR); assay type: cell-based, respiratory syncytial virus; conditions: for EC50: human respiratory syncytial virus, RSV A2 MOI 2, 48 h
Experimental: A549, HEp-2 or NHBE cells were plated into 48 well-plate and incubated overnight. Upon reaching 80% cell confluence, cells were infected RSV A2 (at an MOI of 2 in A549, MOI of 0.5 in HEp-2, and MOI of 1 in NHBE cells) for 2 h after cells were incubated for 1 h with varying concentrations of drugs. Then, the virus-drug mixture was removed, and cells were cultured with drug-containing medium. At 48 h post inoculation, total RNAs were extracted from cells and then in reverse transcription using PrimeScript RT reagent Kit with gDNA Eraser (TaKaRa). For determining the viral copies, absolute quantitative RT-PCR was performed with TB Green® Premix Ex Taq^TM II (TaKaRa). RSV A2 F fragment was quantified with primers 5’-[…]-3’; and 5’-[…]-3’

[2] = Cellular toxicity in A549 cells (WST-8 cell viability); assay type: cell-based; conditions: human
Experimental: Cell viability was performed in 96-well plate with triplicate for each concentration. All drugs were diluted 2 times with 9 gradients starting at 500 micromores in maintenance medium (DMEM containing 2% FBS). After 48 h incubation, the supernatant was removed, and 10 μL WST-8 (2-(2-methoxy-4-(phenyl)-3-(4-(phenyl) to 5 (2, 4-sulpho benzene) -2 h-tetrazolium monosodium salt) in maintenance medium was added in medium. Plates were measured at 450 nm wavelength using spectrophotometer (BioTek) after 2 h incubation, and cell viability was calculated.

[3] = Pharmacokinetic study in SD rats; assay type: in vivo
Experimental: SD rats (N = 3 for each group, male) were fasted for 12 h before dosing (only for the oral administration). The test compound (VV116 or VV116-H) was administered intravenously at 5.0 mg/kg dissolved in DMSO-enthanol-PEG300-saline (5/5/40/50, v/v/v/v), and administered orally at 30 mg/kg dissolved in 40%PEG400+10% Kolliphor® HS15+50% ultrapure water. At 5 min, 0.25, 0.5, 1.0, 2.0, 4.0, 6.0, 8.0, and 24 h post-dosing, blood samples were collected from the jugular vein into EDTA-K2 tubes. […] samples were obtained following general procedures and the concentrations of analytes in the supernatant were analyzed by LC-MS/MS.

RSV = tested on: RSV; parameters: method as in PMID 8413475; conditions: prophylactic treatment; cited from earlier work
RSV A2 [4] = assay type: in vivo, Balb/c mice; conditions: ribavirin 100 mg/kg b.i.d., day 4 p.i.
Experimental: Considering the potent effect of VV116 inhibiting RSV in vitro, we further tested the effect of […] against RSV in a mouse model. Ribavirin, the off-label used drug to treat RSV in the clinic, was employed as a control. To this end, 6–8-week Balb/c mice were intranasally infected with 4 × 10^6 FFU of RSV per mouse (day 0), and were then treated with VV116 (25, 50, and 100 mg/kg) or ribavirin (50 and 100 mg/kg) bis in die (b.i.d.) (supplementary Fig S3). […] Viral RNA level in the lung was measured with quantitative RT-PCR and virion load was measured with immunoplaque assay (Fig. 1e). […] We also evaluated the lung pathology of the challenged mice by histochemical analysis.
Specific pathogen-free (SPF) female Balb/c mice at the age of 6–8 weeks were purchased from Beijing Vital River Laboratory Animal Technology Co., Ltd. The mice were housed in an SPF environment under standard conditions. All mouse experiments were approved by the ethics committee of the Wuhan Institute of Virology, Chinese Academy of Science (permit number WIVA25202113). Thirty mice (5 animals per group, 6 groups) were anaesthetized with isoflurane and challenged with 4×10^6 FFU of RSV A2 intranasally (i.n.). The mice were given drugs by intragastric administration. Treatments were commenced in 1 h post infection and continued for 4 days. […] The weight of the mice was recorded daily. […]

[5] = X1 (VV116) or GS-441524 (VV116-H), i.v. 5.0 mg/kg
[6] = X1 (VV116) or GS-441524 (VV116-H), p.o. 30.0 mg/kg
[7] = A549 cells, 48 h, read-out: CC50

CCC(CC)COC(=O)[C@H](C)N[P@](=O)(OC[C@H]1O[C@@](C#N)(c2ccc3c(N)ncnn23)[C@H](O)[C@@H]1O)Oc1ccccc1 [RDV, Remdesivir]
SI (RSV A2 [1]): 11300
EC50 (RSV A2 [1]): 20 ± 3 nM
CC50 at 48 h [2]: 226000 ± 11400 nM

CC(C)C(=O)OC[C@H]1O[C@@](C#N)(c2ccc3c(N)ncnn23)[C@H](OC(=O)C(C)C)[C@@H]1OC(=O)C(C)C [VV116-H]
Concentration of X1 or GS-441524 in plasma, Mean ([3]; IV 5.0 mg/kg, 5 min): 1997 ng/mL
Concentration of X1 or GS-441524 in plasma, individual rats ([3]; IV 5.0 mg/kg, 5 min, 5 mg/kg): 1940 ng/mL and 1960 ng/mL and 2090 ng/mL
Concentration of X1 or GS-441524 in plasma, Mean ([3]; IV 5.0 mg/kg, 0.25 h): 1557 ng/mL
Concentration of X1 or GS-441524 in plasma, individual rats ([3]; IV 5.0 mg/kg, 0.25 h, 5 mg/kg): 1560 ng/mL and 1620 ng/mL and 1490 ng/mL
Concentration of X1 or GS-441524 in plasma, Mean ([3]; IV 5.0 mg/kg, 0.5 h): 983 ng/mL
Concentration of X1 or GS-441524 in plasma, individual rats ([3]; IV 5.0 mg/kg, 0.5 h, 5 mg/kg): 1040 ng/mL and 921 ng/mL and 988 ng/mL
Concentration of X1 or GS-441524 in plasma, Mean ([3]; IV 5.0 mg/kg, 1.0 h): 502 ng/mL
Concentration of X1 or GS-441524 in plasma, individual rats ([3]; IV 5.0 mg/kg, 1.0 h, 5 mg/kg): 425 ng/mL and 522 ng/mL and 558 ng/mL
Concentration of X1 or GS-441524 in plasma, Mean ([3]; IV 5.0 mg/kg, 2.0 h): 158 ng/mL
Concentration of X1 or GS-441524 in plasma, individual rats ([3]; IV 5.0 mg/kg, 2.0 h, 5 mg/kg): 150 ng/mL and 163 ng/mL and 162 ng/mL
Concentration of X1 or GS-441524 in plasma, Mean ([3]; IV 5.0 mg/kg, 4.0 h): 25 ng/mL
Concentration of X1 or GS-441524 in plasma, individual rats ([3]; IV 5.0 mg/kg, 4.0 h, 5 mg/kg): 23.6 ng/mL and 24.3 ng/mL and 27.8 ng/mL
Concentration of X1 or GS-441524 in plasma, Mean ([3]; IV 5.0 mg/kg, 6.0 h): 11 ng/mL
Concentration of X1 or GS-441524 in plasma, individual rats ([3]; IV 5.0 mg/kg, 6.0 h, 5 mg/kg): BQL (2×) and 11.2 ng/ml
Concentration of X1 or GS-441524 in plasma, individual rats ([3]; IV 5.0 mg/kg, 8.0 h): BQL
Concentration of X1 or GS-441524 in plasma, individual rats ([3]; IV 5.0 mg/kg, 24.0 h): BQL
Concentration of X1 or GS-441524 in plasma, Mean ([3]; PO 30.0 mg/kg, 5 min): 251 ng/mL
Concentration of X1 or GS-441524 in plasma, individual rats ([3]; PO 30.0 mg/kg, 5 min, 30 mg/kg): 122 ng/mL and 279 ng/mL and 353 ng/mL
Concentration of X1 or GS-441524 in plasma, Mean ([3]; PO 30.0 mg/kg, 0.25 h): 1480 ng/mL
Concentration of X1 or GS-441524 in plasma, individual rats ([3]; PO 30.0 mg/kg, 0.25 h, 30 mg/kg): 1450 ng/mL and 1180 ng/mL and 1810 ng/mL
Concentration of X1 or GS-441524 in plasma, Mean ([3]; PO 30.0 mg/kg, 0.5 h): 1963 ng/mL
Concentration of X1 or GS-441524 in plasma, individual rats ([3]; PO 30.0 mg/kg, 0.5 h, 30 mg/kg): 1790 ng/mL and 1440 ng/mL and 2660 ng/mL
Concentration of X1 or GS-441524 in plasma, Mean ([3]; PO 30.0 mg/kg, 1.0 h): 1523 ng/mL
Concentration of X1 or GS-441524 in plasma, individual rats ([3]; PO 30.0 mg/kg, 1.0 h, 30 mg/kg): 1570 ng/mL and 1490 ng/mL and 1510 ng/mL
Concentration of X1 or GS-441524 in plasma, Mean ([3]; PO 30.0 mg/kg, 2.0 h): 1717 ng/mL
Concentration of X1 or GS-441524 in plasma, individual rats ([3]; PO 30.0 mg/kg, 2.0 h, 30 mg/kg): 1610 ng/mL and 1730 ng/mL and 1810 ng/mL
Concentration of X1 or GS-441524 in plasma, Mean ([3]; PO 30.0 mg/kg, 4.0 h): 860 ng/mL
Concentration of X1 or GS-441524 in plasma, individual rats ([3]; PO 30.0 mg/kg, 4.0 h, 30 mg/kg): 761 ng/mL and 995 ng/mL and 825 ng/mL
Concentration of X1 or GS-441524 in plasma, Mean ([3]; PO 30.0 mg/kg, 6.0 h): 179 ng/mL
Concentration of X1 or GS-441524 in plasma, individual rats ([3]; PO 30.0 mg/kg, 6.0 h, 30 mg/kg): 154 ng/mL and 165 ng/mL and 218 ng/mL
Concentration of X1 or GS-441524 in plasma, Mean ([3]; PO 30.0 mg/kg, 8.0 h): 76 ng/mL
Concentration of X1 or GS-441524 in plasma, individual rats ([3]; PO 30.0 mg/kg, 8.0 h, 30 mg/kg): 32.8 ng/mL and 90 ng/mL and 106 ng/mL
Concentration of X1 or GS-441524 in plasma, Mean ([3]; PO 30.0 mg/kg, 24.0 h): 13 ng/mL
Concentration of X1 or GS-441524 in plasma, individual rats ([3]; PO 30.0 mg/kg, 24.0 h, 30 mg/kg): 9.79 ng/mL and 23.3 ng/mL and 6.27 ng/mL
AUC0-t [3, 5]: 1689 ± 80 ng·h/mL
AUC0-∞ [3, 5]: 1709 ± 74 ng·h/mL
CL [3, 5]: 48.8 ± 2.1 mL/min/kg
Cmax [3, 5]: 1997 ± 81 ng/mL
MRT0-∞ [3, 5]: 0.82 ± 0.05 h
T1/2 [3, 5]: 0.73 ± 0.07 h
Vss [3, 5]: 2.41 ± 0.05 L/kg
AUC0-t [3, 6]: 7664 ± 802 ng·h/mL
AUC0-∞ [3, 6]: 7768 ± 827 ng·h/mL
Cmax [3, 6]: 2060 ± 520 ng/mL
MRT0-∞ [3, 6]: 3.47 ± 0.80 h
T1/2 [3, 6]: 4.59 ± 2.08 h
Tmax [3, 6]: 1.00 ± 0.87 h
F ([3]; X1 (VV116) or GS-441524 (VV116-H), p.o. 30.0 mg/kg vs i.v. 5.0 mg/kg): 75.6%

[2H]c1cc([C@]2(C#N)O[C@H](COC(=O)C(C)C)[C@@H](OC(=O)C(C)C)[C@H]2OC(=O)C(C)C)n2ncnc(N)c12 [X6]
SI (RSV A2 [1]): 80
EC50 (RSV A2 [1]): 1200 ± 320 nM
CC50 at 48 h [2, 7]: 95900 ± 9270 nM

Nc1ccn([C@@H]2O[C@@](CO)(CCl)[C@@H](O)[C@H]2F)c(=O)n1 [ALS-8112]
SI (RSV A2 [1]): > 1785
EC50 (RSV A2 [1]): 280 ± 70 nM
CC50 at 48 h [2, 7]: > 500000 nM

N#C[C@@]1(c2ccc3c(N)ncnn23)O[C@H](CO)[C@@H](O)[C@H]1O [GS-441524, 1′-CN-4-aza-7,9-dideazaadenosine C-nucleoside]
SI (RSV A2 [1]): > 608
EC50 (RSV A2 [1]): 820 ± 460 nM
CC50 at 48 h [2, 7]: > 500000 nM

palivizumab: approved prophylactic treatment for prevention of serious RSV lower respiratory tract disease in high-risk children
Share of individuals in whom effective in preventing hospitalization (RSV): ~ 50%

NC(=O)c1ncn([C@@H]2O[C@H](CO)[C@@H](O)[C@H]2O)n1 [ribavirin, Ribavirin]
Decrease of infectious titers in lung (RSV A2 [4]): ~ 2.0 log10
Decrease of viral RNA copies in lung (RSV A2 [4]): ~ 1.5 log10
